For data set [1], the system named is Eμ-TCL1 adoptive transfer CLL mouse model. The data set can be described thus: Eμ-TCL1 adoptive transfer CLL mouse model, survival. In kind it is in vivo, C57BL/6NTac mice. The note with it: daily oral gavage; venetoclax 100 mg/kg, nemtabrutinib 75 mg/kg, ibrutinib 25 mg/kg; 48 mice with BCR-dependent disease. The source says: (Bichi R, et al. Proc Natl Acad Sci USA. 2002; 99(10):6955-60). For FIG. 2A, splenocytes from a Eμ-TCL1 donor mouse were engrafted into 93 C57BL/6NTac mice via tail vein injection. Recipient mice were randomly enrolled into treatment groups after developing CD5+CD19+ disease as assessed by flow cytometry of peripheral blood. […] Due to the large study size, splenocytes from multiple E-TCL1 donors were needed to engraft C57BL/6NTac mice. Splenocytes from 4 donors were engrafted into groups of 48, 25, 17, and 3 recipient mice, respectively.
Peripheral blood disease progression was monitored weekly via flow cytometry and was reported as % CD5+CD19+ of CD45+ cells. (FIG. 2B). […] The survival differences of 48 mice engrafted with splenocytes from a single donor with BCR-dependent disease were assessed.

A further data set has as its system Primary CLL cells. As to the kind of experiment: Primary CLL cell viability by flow cytometry following Annexin V/PI staining. In kind it is cell-based, human. The note with it: BTKi 1 μM added to venetoclax 5 nM; ibrutinib washed out after 1 hr; total incubation 24 hr. The protocol:
Cell viability was assessed by flow cytometry following Annexin V/PI staining. Data are normalized to DMSO control. A linear mixed effect model was used to analyze raw data and p values were adjusted for multiple comparisons using Tukey's method (*, p<0.05, **, pS0.01, ***, pS0.001).
(In general: A flow cytometer gives signals particle by particle.)

The subject of another data set is BCL-2 and BCL-xL. The data set can be described thus: BH3 profiling of primary CLL cells from nemtabrutinib treated patients (cytochrome c release). The note with it: samples from 3 nemtabrutinib treated patients, co-cultured with NK Tert stromal cells. The data set is classed as cell-based, human. The source says:
For FIG. 1F, primary CLL cells from nemtabrutinib treated patients were co-cultured with NK Tert stromal cells before performing BH3 profiling using BIM, BAD, MS-1, Y4ek, and PUMA2A peptides. Baseline cytochrome c release measured in DMSO treated cells has been subtracted from all test conditions and controls presented. Cytochrome c release in response to interaction with BIM, BAD, and Y4ek peptides indicates cellular dependency on BCL-2 and BCL-xL. A linear mixed effect model was used to analyze raw data and p values were adjusted for multiple comparisons using Tukey's method. All statistics represented are in comparison to DMSO treated control (*, p<0.05, **, p<0.01, ***, p<0.001).

Another data set has as its system ERK phosphorylation. The data set can be described thus: Immunoblot of anti-IgM stimulated primary CLL cells: pERK. The data set is classed as cell-based, human. The note with it: nemtabrutinib vs ibrutinib (1 μM), 24 hr, anti-IgM 15 min, normalized to GAPDH. The protocol: The effects of combining venetoclax and BTKi's on BCR signaling can be seen in FIG. 1B. […] Cells were stimulated with 10 μg plate-bound anti-IgM for 15 min before collection of whole cell lysate and analysis using SDS-PAGE.
For FIG. 1C to IE, all immunoblots of primary CLL patient samples were quantified using densitometry software (AlphaView). Protein levels (FIG. 1C: pBTK, FIG. 1D: pERK, FIG. 1E: MCL-1) normalized to GAPDH loading control are reported as fold change over vehicle control. A linear mixed effect model was used to analyze raw data normalized to GAPDH loading control and p values were adjusted for multiple comparisons using Tukey's method (*, p<0.05, ** p<0.01, ***, p<0.001).
In general terms: Immunoblotting shows a protein as a band on a membrane.

The subject of data set [2] is BTK^Y223 autophosphorylation. As to the kind of experiment: Immunoblot of anti-IgM stimulated primary CLL cells: pBTK. In kind it is cell-based, human. The settings on record: ibrutinib (1 μM), 24 hr, anti-IgM 15 min, normalized to GAPDH.
The subject of the next data set is BTK's downstream targets. The note with it: cited from earlier work.

Here are results for 2 compounds from US20250170133A1, “PHARMACEUTICAL COMBINATIONS AND METHODS OF USE OF AMINO-PYRROLOPYRIMIDINONE COMPOUND” (Merck Sharp & Dohme LLC, priority 2022, published 2025).

As for `CC1(C)CCC(CN2CCN(c3ccc(C(=O)NS(=O)(=O)c4ccc(NCC5CCOCC5)c([N+](=O)[O-])c4)c(Oc4cnc5[nH]ccc5c4)c3)CC2)=C(c2ccc(Cl)cc2)C1` [venetoclax, reference compound], in data set [1], the median survival is reported as 34.5 days.

For `O=C(c1ccc(Oc2ccccc2)cc1Cl)c1c[nH]c2ncnc(N[C@@H]3CC[C@@H](CO)OC3)c12` [nemtabrutinib], the “increase in cytotoxicity compared to venetoclax alone” value with Primary CLL cells came out at 10%. In data set [1], this compound returned a median survival of 81.5 days. Moreover, the “cytochrome c release in response to BIM, BAD and Y4ek peptides” value with BCL-2 and BCL-xL is “maintain dependence on BCL2 and BCL-xL”. In addition, the ERK phosphorylation entry with ERK phosphorylation is listed as “inhibited to a more significant degree”. In addition, the “autophosphorylation of BTK^Y223 vs stimulated vehicle” value in data set [2] is listed as “significantly inhibited”. Also, in the data set on BTK's downstream targets, the “inhibition of BTK's downstream targets compared to ibrutinib” value is “greater inhibition”.
